Data from paper PMC3613864 (Cell, 2012).
Entries after “also recorded” stand apart in the source; their conditions may differ. Where two headings read alike, the source gives them in different places.

Legend:
6133/MPL cells [1] = experiment: Drug treatment of mice transplanted with 6133/MPL cells; type: in vivo, C57Bl/6 mice
[2] = test system: murine bone marrow-derived megakaryocytes; experiment: Primary murine hematopoietic progenitor cells cultured with THPO; type: cell-based; details: primary mouse bone marrow cells cultured ex vivo
[3] = Oral pharmacokinetics, plasma concentration after a single dose; details: single oral administration of 15 mg/kg
tg-ERG cells = experiment: AMKL cell line derived from ERG transgenic mice; type: cell-based; details: tg-ERG cells (data not shown)
CMK cells [4] = experiment: Polyploidization, proliferation, apoptosis and CD41/CD42 expression in CMK cells; type: cell-based, human
6133/MPL cells [5] = experiment: 6133/MPL cells in vitro; type: cell-based; details: 6133/MPL murine cell line
[6] = test system: human CD41+ non-DS-AMKL blasts; experiment: Human non-DS-AMKL blasts cultured ex vivo; type: cell-based; details: 0.1 µM, 6 days
AURKB = AURKB (Homo sapiens, UniProt Q96GD4); experiment: Phosphorylation of Aurora kinases in CMK cells by Western blot; type: cell-based
Chain of AURKB (Q96GD4 whole entry): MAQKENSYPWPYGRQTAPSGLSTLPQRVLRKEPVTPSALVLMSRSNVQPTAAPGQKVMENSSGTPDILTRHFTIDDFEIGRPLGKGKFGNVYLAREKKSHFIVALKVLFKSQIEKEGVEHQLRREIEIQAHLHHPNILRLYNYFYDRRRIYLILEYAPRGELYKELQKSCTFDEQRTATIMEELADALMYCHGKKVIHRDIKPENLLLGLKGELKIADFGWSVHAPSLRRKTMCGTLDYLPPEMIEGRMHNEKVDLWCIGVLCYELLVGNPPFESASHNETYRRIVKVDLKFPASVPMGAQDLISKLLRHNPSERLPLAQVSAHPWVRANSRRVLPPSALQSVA

AURKA relative to AURKB = details: ref Gorgun et al., 2010; Manfredi et al., 2011; cited from earlier work
[7] = test system: primary human megakaryocytes; experiment: Primary human megakaryocytes expanded from CD34+ cells; type: cell-based
AURKA = target: T1, AURKA (Homo sapiens, UniProt O14965); experiment: Phosphorylation of Aurora kinases in CMK cells by Western blot; type: cell-based
T1 sequence (O14965 1-403): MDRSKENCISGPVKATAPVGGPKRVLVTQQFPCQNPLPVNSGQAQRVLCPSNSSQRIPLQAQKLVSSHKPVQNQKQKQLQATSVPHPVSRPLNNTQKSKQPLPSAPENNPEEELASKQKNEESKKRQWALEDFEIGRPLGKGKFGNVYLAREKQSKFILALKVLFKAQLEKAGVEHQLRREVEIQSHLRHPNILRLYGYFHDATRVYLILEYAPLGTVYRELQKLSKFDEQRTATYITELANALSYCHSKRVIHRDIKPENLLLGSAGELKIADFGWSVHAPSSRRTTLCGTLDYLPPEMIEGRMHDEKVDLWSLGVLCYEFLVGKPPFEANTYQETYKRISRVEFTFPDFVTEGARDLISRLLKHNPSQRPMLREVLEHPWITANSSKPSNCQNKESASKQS

6133/MPL cells [8] = experiment: Transplantation of drug-pre-treated 6133/MPL cells into mice; type: in vivo, C57Bl/6 mice
in vivo = details: C57Bl/6, mouse, plasma, po, 15 mg/kg
phospho-histone H3 = experiment: Phosphorylation of histone H3 in CMK cells; type: cell-based, human
CMK cells [9] = type: cell-based, human; details: three-day incubation
[10] = test system: leukemia blasts that harbor activated oncogenic forms of KIT, FLT3, and BCR-ABL; details: ref Mali et al., 2011; cited from earlier work
402 purified kinases = experiment: Ambit KinomeScan kinase binding profile; details: of 402 kinases; 5 µM diMF
AMKL-derived cells = experiment: Phenotype in AMKL-derived cells; type: cell-based; details: data not shown
[11] = CMK cells, 72 hr, Fig 2: K252a, latrunculin B, diMF 5 µM, SU6656 4 µM
[12] = 1 µM, CMK cells (data not shown)
[13] = CMK cells, 0.1 µM paclitaxel 18 hr then compound 2 hr

Which results are given for `COc1cc(Nc2ncc3c(n2)-c2ccc(Cl)cc2C(c2c(F)cccc2OC)=NC3)ccc1C(=O)O` [MLN8237, Alisertib]?
infiltration of leukemic cells (liver, lung) (6133/MPL cells [1]; 15 mg/kg): striking reduction of infiltration of leukemic cells; peripheral white blood cell count, spleen and liver weights (6133/MPL cells [1]; 15 mg/kg for 2 weeks vs vehicle): significantly reduced peripheral white blood cell count and spleen and liver weights; polyploidization and expression of CD41 and CD42 [2]: induced polyploidization and expression of CD41 and CD42; bioavailability [3]: excellent bioavailability; mean plasma concentrations for at least 12 hr [3]: above 0.5 µM; proliferation and megakaryocyte lineage-specific surface marker expression (tg-ERG cells): induced proliferation arrest and megakaryocyte lineage-specific surface marker expression; apoptosis (CMK cells [4]; [11]): induced; polyploidization (CMK cells [4]; [11]): induced robust polyploidization; proliferation (CMK cells [4]; [11]): restricted proliferation; polyploidization, CD41 and CD42 expression, and apoptosis (6133/MPL cells [5]): increased polyploidization, CD41 and CD42 expression, and apoptosis; polyploidization and proliferation of human non-DS AMKL cells [6]: induced both polyploidization and proliferative arrest; autophosphorylation of AURKB (AURKB; 0.1 µM, CMK cells): but not AURKB; selectivity for AURKA relative to AURKB in cells (AURKA relative to AURKB): 200 fold; polyploidization of primary human megakaryocytes [7]: induced robust and selective polyploidization; AURKA phosphorylation / autophosphorylation (AURKA): reduced AURKA autophosphorylation; autophosphorylation of AURKA (AURKA): inhibited autophosphorylation of AURKA; animals surviving up to 120 days after transplantation of pre-treated cells (6133/MPL cells [8]; 6133/MPL cells pre-treated 24 hr with 1 µM): 80%; Cmax (in vivo): 34.8 µM; Tmax (in vivo): 0.5 h; half-life (in vivo): 3.1 h; phospho-histone H3 level (phospho-histone H3): accumulation of phospho-histone H3

Which apoptosis (CMK cells [4]; [11]) does the source give for `c1nc2nc(Nc3ccc(N4CCOCC4)cc3)nc(NC3CCCCC3)c2[nH]1` [reversine] here?
The apoptosis was “inducing”.

What about the polyploidization (CMK cells [4]; [11]) of the same compound?
The polyploidization was “inducing”.

What about the proliferation (CMK cells [4]; [11]) of the same compound?
Its proliferation is “inhibited”.

And the “screening positive: increased fraction of cells with DNA content beyond a cutoff (between 4N and 8N) compared to DMSO” value (from here on “screening positive: increased fraction”) (CMK cells [9])?
The value was “identified”.

With `C/C1=C/C(=O)O[C@@H]2C[C@@H](CC[C@H](C)/C=C\CC1)O[C@@](O)([C@@H]1CSC(=O)N1)C2` [latrunculin B] as the compound, how does the apoptosis (CMK cells [4]; [11]) read?
Its apoptosis is “inducing”.

What about the polyploidization (CMK cells [4]; [11]) of the same compound?
Its polyploidization is “inducing”.

What about the proliferation (CMK cells [4]; [11]) of the same compound?
Its proliferation is “inhibited”.

What about the “screening positive: increased fraction” value (CMK cells [9]) of the same compound?
The value was “positives”.

What does the source list for `COC(=O)[C@@]1(O)C[C@H]2O[C@]1(C)n1c3ccccc3c3c4c(c5c6ccccc6n2c5c31)C(=O)NC4` [K252a]?
apoptosis (CMK cells [4]; [11]): inducing; polyploidization (CMK cells [4]; [11]): inducing; proliferation (CMK cells [4]; [11]): inhibited; screening positive: increased fraction of cells with DNA content beyond a cutoff (between 4N and 8N) compared to DMSO (CMK cells [9]): identified

Which “growth of leukemia cells in vivo and in vitro” value [10] does the source give for `O=S(=O)(c1cccc2cnccc12)N1CCCNCC1` [fasudil] here?
The value was “restricted the growth”.

And the “number of kinases whose binding to the immobilized ligand was inhibited by more than 65%” value (402 purified kinases)?
The value was 27.

What about the “activity / phenotype in AMKL-derived cells compared with diMF” value (AMKL-derived cells) of the same compound?
Its value is “did not fully recapitulate the strong phenotype; also recorded: lack of activity”.

With `CN(C)S(=O)(=O)c1ccc2c(c1)/C(=C/c1cc3c([nH]1)CCCC3)C(=O)N2` [SU6656] as the compound, how does the apoptosis (CMK cells [4]; [11]) read?
Its apoptosis is “inducing”.

And the polyploidization (CMK cells [4]; [11])?
Its polyploidization is “inducing”.

What about the proliferation (CMK cells [4]; [11]) of the same compound?
The proliferation was “inhibited”.

For JAK3 inhibitor VI, which apoptosis (CMK cells [4]) is on record?
The apoptosis was “inducing”.

What about the polyploidization (CMK cells [4]) of the same compound?
The polyploidization was “inducing; also recorded: Induction of CMK polyploidization”.

And the “screening positive: increased fraction” value (CMK cells [9])?
The value was “identified”.

With `C=C1[C@@H](C)[C@H]2[C@H](Cc3ccccc3)NC(=O)[C@]23OC(=O)/C=C/[C@H](O)CCC[C@@H](C)C/C=C/[C@H]3[C@@H]1O` [cytochalasin B] as the compound, how does the “screening positive: increased fraction” value (CMK cells [9]) read?
Its value is “positives”.

For `CCN(CCO)CCCOc1ccc2c(Nc3cc(CC(=O)Nc4cccc(F)c4)[nH]n3)ncnc2c1` [AZD1152-HQPA], which “proliferation and megakaryocyte lineage-specific surface marker expression” value (tg-ERG cells) is on record?
The value was “induced proliferation arrest and megakaryocyte lineage-specific surface marker expression”.

What about the apoptosis (CMK cells [4]; [11]) of the same compound?
The apoptosis was “induced”.

And the polyploidization (CMK cells [4]; [11])?
The polyploidization was “induced robust polyploidization”.

And the proliferation (CMK cells [4]; [11])?
Its proliferation is “restricted proliferation”.

And the “polyploidization, CD41 and CD42 expression, and apoptosis” value (6133/MPL cells [5])?
The value was “increased polyploidization, CD41 and CD42 expression, and apoptosis”.

And the phospho-AURKB (AURKB; [12])?
Its phospho-AURKB is “complete loss of phospho-AURKA and AURKB”.

And the AURKB phosphorylation (AURKB; [13])?
Its AURKB phosphorylation is “reduced phosphorylation of both Aurora A and B kinases”.

What about the “polyploidization of primary human megakaryocytes” value [7] of the same compound?
The value was “induced robust and selective polyploidization”.

What about the phospho-AURKA (AURKA; [12]) of the same compound?
The phospho-AURKA was “complete loss of phospho-AURKA and AURKB”.

And the “AURKA phosphorylation / autophosphorylation” value (AURKA; [13])?
Its value is “reduced phosphorylation of both Aurora A and B kinases”.

And the “leukemia development after transplantation of pre-treated cells” value (6133/MPL cells [8]; 6133/MPL cells pre-treated 24 hr with 3 µM)?
Its value is “failed to significantly interfere with leukemia development”.

And the “phospho-histone H3 level” value (phospho-histone H3)?
The value was “reduction in phospho-histone H3”.
